Calls of active or inactive are those of the source. The calls are words filed in the database; no cut-off is given here.
Assays:
A549 [1] = assay: Induction of apoptosis in human A549 cells assessed as late apoptotic cells at 5 uM after 36 hrs by Annexin V/propidium iodide based flow cytometric analysis (reference value: 2.3%); type: functional
A549 [2] = assay: Cytotoxic activity against human A549 cells assessed as reduction in cell viability after 72 hrs by SRB assay; type: functional, cell-based; conditions: A549, 72 h
HCT-116 = assay: Cytotoxic activity against human HCT116 cells assessed as reduction in cell viability; type: functional, cell-based
SK-OV-3 = assay: Cytotoxic activity against human SKOV3 cells assessed as reduction in cell viability after 72 hrs by SRB assay; type: functional, cell-based; conditions: SK-OV-3, 72 h
HFF = assay: Cytotoxic activity against HFF cells assessed as reduction in cell viability; type: cell-based; conditions: Homo sapiens
PC-3 = assay: Cytotoxic activity against human PC3 cells assessed as reduction in cell viability after 72 hrs by SRB assay; type: functional, cell-based; conditions: PC-3, 72 h
MDA-MB-231 = assay: Cytotoxic activity against human MDA-MB-231 cells assessed as reduction in cell viability; type: functional, cell-based
SK-BR-3 = assay: Cytotoxic activity against human SKBR3 cells assessed as reduction in cell viability; type: functional, cell-based
MCF7 = assay: Cytotoxic activity against human MCF7 cells assessed as reduction in cell viability; type: functional, cell-based
LNCaP = assay: Cytotoxic activity against human LNCAP cells assessed as reduction in cell viability; type: functional, cell-based
L02 = assay: Cytotoxic activity against human HL7702 cells; type: cell-based
A549 [3] = assay: Induction of apoptosis in human A549 cells assessed as reduction in mitochondrial membrane potential at 5 uM after 24 hrs using JC-1 dye based spectrofluorometry; type: functional, cell-based
A549 [4] = assay: Induction of apoptosis in human A549 cells assessed as ROS generation at 1 to 100 uM after 18 hrs; type: functional, cell-based
A549 [5] = assay: Induction of apoptosis in human A549 cells assessed as genomic DNA fragmentation at 5 uM after 24 hrs by FITC/DAPI staining based TUNEL assay; type: functional, cell-based
A549 [6] = assay: Effect on tubulin in human A549 cells at 1 to 100 uM after 18 hrs; type: cell-based
A549 [7] = assay: Induction of apoptosis in human A549 cells assessed as increase in cytochrome c level after 36 hrs by Western blot method; type: functional, cell-based
A549 [8] = assay: Induction of apoptosis in human A549 cells assessed as increase in cleaved caspase-3 level after 36 hrs by Western blot method; type: functional, cell-based
A549 [9] = assay: Induction of apoptosis in human A549 cells assessed as increase in cleaved PARP level after 36 hrs by Western blot method; type: functional, cell-based
A549 [10] = assay: Induction of apoptosis in human A549 cells assessed as increase in Bax level after 36 hrs by Western blot method; type: functional, cell-based
A549 [11] = assay: Induction of apoptosis in human A549 cells assessed as decrease in Bcl-2 level after 36 hrs by Western blot method; type: functional, cell-based
A549 [12] = assay: Induction of apoptosis in human A549 cells assessed as decrease in PARP level after 36 hrs by Western blot method; type: functional, cell-based
A549 [13] = assay: Induction of apoptosis in human A549 cells assessed as early apoptotic cells at 5 uM after 36 hrs by Annexin V/propidium iodide based flow cytometric analysis (reference value: 0.5%); type: functional
A549 [14] = assay: Induction of apoptosis in human A549 cells assessed as necrotic cells at 5 uM after 36 hrs by Annexin V/propidium iodide based flow cytometric analysis (reference value: 0.2%); type: functional
A549 [15] = assay: Potency index, ratio of 5-FU IC50 to compound IC50 for human A549 cells; type: functional

## CCOCO[C@]12CCC[C@]3(CO1)c1ccc(C(C)C)c(OC)c1C(=O)C[C@@H]23
A549 [1]
  Activity: 15.8%
A549 [2]
  IC50: 1.32 µM
HCT-116
  IC50: 1.1 to 4.5 µM
SK-OV-3
  IC50: 1.57 µM
HFF
  IC50: 16.1 to 22.4 µM
PC-3
  IC50: 2.58 µM
MDA-MB-231
  IC50: 1.1 to 4.5 µM
SK-BR-3
  IC50: 1.1 to 4.5 µM
MCF7
  IC50: 1.1 to 4.5 µM
LNCaP
  IC50: 1.1 to 4.5 µM
L02
  IC50: 16.1 to 22.4 µM
A549 [3]
  Activity: Active
A549 [4]
  Activity: inactive
A549 [5]
  Activity: Active
A549 [6]
  Activity: inactive
A549 [7]
  Activity: Dose-dependent effect
A549 [8]
  Activity: Dose-dependent effect
A549 [9]
  Activity: Dose-dependent effect
A549 [10]
  Activity: Dose-dependent effect
A549 [11]
  Activity: Active
A549 [12]
  Activity: Active
A549 [13]
  Activity: 1.3%
A549 [14]
  Activity: 1.3%
A549 [15]
  Ratio IC50: 24

## C=CCOc1c(C(C)C)ccc2c1C(=O)C[C@H]1C3=C(CC[C@]21C)C(=O)OC3
A549 [2]
  IC50: > 100 µM
SK-OV-3
  IC50: 82.4 µM
PC-3
  IC50: 98.3 µM

## COc1c(C(C)C)ccc2c1CC[C@H]1C(=O)CCC[C@]21CO[N+](=O)[O-]
A549 [2]
  IC50: > 100 µM
SK-OV-3
  IC50: > 100 µM
PC-3
  IC50: > 100 µM

## COc1cccc2c1CC[C@H]1[C@@H](CO)[C@H](O[Si](C)(C)C(C)(C)C)CC[C@]21C
A549 [2]
  IC50: > 100 µM
SK-OV-3
  IC50: > 100 µM
PC-3
  IC50: > 100 µM

## COC(=O)C1=C[C@@H]2CCc3c(ccc(C(C)C)c3OC)[C@@]2(C)CC1
A549 [2]
  IC50: > 100 µM
SK-OV-3
  IC50: > 100 µM
PC-3
  IC50: > 100 µM

## COC(=O)[C@]1(C)CCC[C@]2(C)c3ccc(C(C)C)c(N)c3CC[C@@H]12
A549 [2]
  IC50: 35.7 µM
SK-OV-3
  IC50: 37.8 µM
PC-3
  IC50: 21.1 µM

## COc1c(C(C)C)ccc2c1CC[C@H]1c3cocc3CC[C@]21C
A549 [2]
  IC50: 27.4 µM
SK-OV-3
  IC50: 21.3 µM
PC-3
  IC50: 19.3 µM

## C=C1C(=O)CC[C@]2(C)c3cccc(OC)c3CC[C@@H]12
A549 [2]
  IC50: 5.47 µM
SK-OV-3
  IC50: 3.31 µM
PC-3
  IC50: 5.01 µM

## O=c1[nH]cc(F)c(=O)[nH]1 [FLUOROURACIL]
A549 [2]
  IC50: 32.1 µM
SK-OV-3
  IC50: 23.1 µM
PC-3
  IC50: 15.3 µM

## COc1c(C(C)C)ccc2c1CC[C@H]1[C@H]3COC(=O)[C@H]3CC[C@]21C
A549 [2]
  IC50: > 100 µM
SK-OV-3
  IC50: > 100 µM
PC-3
  IC50: > 100 µM

## CC(C)C1=CC2=CC[C@@H]3[C@](C)(CCC[C@@]3(C)C(=O)O)[C@H]2CC1 [ABIETIC ACID]
A549 [2]
  IC50: > 100 µM
SK-OV-3
  IC50: 90.4 µM
PC-3
  IC50: > 100 µM

## COC(=O)[C@]1(C)CCC[C@]2(C)c3ccc(C(C)C)c(OC)c3[C@@H](O)C[C@@H]12
A549 [2]
  IC50: 85.7 µM
SK-OV-3
  IC50: 51.9 µM
PC-3
  IC50: 64.2 µM

## CC(C)c1ccc2c(c1O)CC[C@H]1C3=C(CC[C@]21C)C(=O)OC3 [TRIPTOPHENOLIDE]
A549 [2]
  IC50: > 100 µM
SK-OV-3
  IC50: > 100 µM
PC-3
  IC50: > 100 µM

## C[C@]12CC=C3C(=O)OC[C@@H]3[C@@H]1CCc1ccccc12
A549 [2]
  IC50: > 100 µM
SK-OV-3
  IC50: > 100 µM
PC-3
  IC50: > 100 µM
